# Source: US20040038861A1, “Methods and compositions for normalizing lipid levels in mammalian tissues” (priority 2001, published 2004)
# T1: murine ramp 1/C1ins− receptor (Mus musculus, UniProt Q60755+Q9WTJ5)
# T1 construct: expressed in transfected cells; host or cells: L6 myoblasts (ATCC), transient co-transfection of pcDNA3.1 plasmids
# T1 sequence (Q60755 42-496 isoform Q60755-2 limits assumed): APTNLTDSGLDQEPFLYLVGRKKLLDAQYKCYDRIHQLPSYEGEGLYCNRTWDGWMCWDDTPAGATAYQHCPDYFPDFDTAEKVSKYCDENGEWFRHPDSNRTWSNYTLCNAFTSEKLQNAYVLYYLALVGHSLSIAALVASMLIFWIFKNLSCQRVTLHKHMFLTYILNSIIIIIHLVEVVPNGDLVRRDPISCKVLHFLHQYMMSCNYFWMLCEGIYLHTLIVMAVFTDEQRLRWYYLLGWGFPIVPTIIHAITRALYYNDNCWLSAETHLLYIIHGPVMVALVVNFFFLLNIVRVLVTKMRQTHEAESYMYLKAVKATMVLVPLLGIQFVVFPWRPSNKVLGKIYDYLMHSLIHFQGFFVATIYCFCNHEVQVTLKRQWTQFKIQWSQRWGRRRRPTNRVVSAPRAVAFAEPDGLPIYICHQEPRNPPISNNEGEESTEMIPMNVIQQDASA
# T1 sequence (Q9WTJ5 27-148 partner): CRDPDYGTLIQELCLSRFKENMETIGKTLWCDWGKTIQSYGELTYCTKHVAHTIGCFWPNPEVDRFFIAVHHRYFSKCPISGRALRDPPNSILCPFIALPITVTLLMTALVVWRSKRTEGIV
# T2: ramp 1/C1ins− receptor (Mus musculus, UniProt Q60755+Q9WTJ5)
# T2 construct: expressed in transfected cells; host or cells: L6 myoblasts (ATCC), transient co-transfection of pcDNA3.1 plasmids
# T2 sequence (Q60755 42-496 isoform Q60755-2 limits assumed): T1 sequence (Q60755 42-496 isoform Q60755-2 limits assumed)
# T2 sequence (Q9WTJ5 27-148 partner): T1 sequence (Q9WTJ5 27-148 partner)
# T3: murine ramp 1/C1ins- receptor (murine, UniProt Q60755)
# T3 sequence 1: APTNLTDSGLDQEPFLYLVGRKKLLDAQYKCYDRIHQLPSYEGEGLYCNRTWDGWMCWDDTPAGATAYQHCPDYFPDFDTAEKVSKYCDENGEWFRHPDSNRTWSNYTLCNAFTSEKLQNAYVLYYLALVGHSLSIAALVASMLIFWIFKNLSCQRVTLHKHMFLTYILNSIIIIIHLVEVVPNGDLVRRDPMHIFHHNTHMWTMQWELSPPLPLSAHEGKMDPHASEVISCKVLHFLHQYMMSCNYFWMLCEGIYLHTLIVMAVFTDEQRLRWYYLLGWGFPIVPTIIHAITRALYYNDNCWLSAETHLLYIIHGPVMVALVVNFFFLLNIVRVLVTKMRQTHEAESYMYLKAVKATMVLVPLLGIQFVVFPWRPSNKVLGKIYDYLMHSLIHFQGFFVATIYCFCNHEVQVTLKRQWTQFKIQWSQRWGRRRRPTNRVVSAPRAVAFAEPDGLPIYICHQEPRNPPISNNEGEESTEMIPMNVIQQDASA
# T3 sequence 2: T1 sequence (Q9WTJ5 27-148 partner)
# Experiments:
# soleus muscle [1] = assay: Incorporation of D[14C(U)]glucose into glycogen in isolated incubated soleus muscle; format: cell-based, rat; conditions: isolated rat soleus muscle
# Description: (§1) Soleus muscle preparation. All experiments were performed according to protocols approved by the Institutional Animal Ethics Committee. 5-6 week-old male Wistar rats (160 g) were kept on a 12:12-h light/dark cycle, and fed and watered ad libitum. Animals were anaesthetised with 50 mg/kg Nembutal (pentobarbitone sodium), then sacrificed by cervical dislocation. Soleus muscles were dissected under oxygenated KHB (118 mM NaCl, 4.75 mM KCl, 1.2 mM MgSO4, 24.8 mM NaHCO3, 1.2 mM KH2PO4, 2.54 mM CaCl2, 10 mM glucose, pH 7.4) and teased into halves, then incubated as described below.
# Measurement of glycogen metabolism in isolated, incubated soleus muscle. […]. Glycogen was precipitated overnight at −20° C. with 96% ethanol (1.2 ml), followed by centrifugation at 8,000 g (15 min, 4° C.). Pellets were washed twice with the same amount of ethanol then dissolved in water (0.6 ml). Aliquots (0.3 ml) were analyzed for D[^14C(U)] glucose content by liquid scintillation spectrometry.
# (§2) Data analysis. One way ANOVA, Dunnett's Multiple Comparisons Test, and unpaired Student's t-tests were used to calculate the statistical significance of differences, as appropriate. Dose-response curves were fitted to a sigmoidal dose-response algorithm, as follows: Y=minimum+(maximum−minimum)/([…] log ^(EC50^−X), for 2-DOG-uptake; and by a four parameter logistic model, Y=minimum+(maximum−minimum)/(1+10 log ^(EC50^−X)Hill-Coefficient) for total glycogen and [^14C]glucose incorporation. Calculations were performed using Prism v2.0 (GraphPad Software, San Diego, Calif.) to derive values for half-maximal effective concentration (EC50). Displacement curves derived for competition of bound radioligand with cold ligand in transfected cells were calculated according to a one site competition fit using Prism v2.0.
# soleus muscle [2] = assay: Total glycogen content in isolated incubated soleus muscle; format: cell-based, rat; conditions: isolated rat soleus muscle
# Description: as §1
# Total glycogen content was measured in muscle strips by lyophilization followed by hydrolysis of glycogen to D-glucose with amyloglucosidase (Sigma) 20 U/100 ml in 0.2 M sodium acetate/acetic acid buffer, pH 4.8, and expressed as μmol ‘glucosyl’ units/g dry muscle weight. Free glucose in supernatant solutions was measured with a glucose/lactate analyzer (YSI 2300STAT, Yellow Springs Corporation) using D-glucose oxidase immobilized enzyme chemistry.
# as §2
# [3] = target: T1, murine ramp 1/C1ins− receptor; assay: Radioligand binding and displacement of [3H]amylin in L6 myoblasts co-transfected with murine ramp 1 and C1ins−; conditions: 10 nM radioligand, FIG. 8D
# Description: Transfection of L6 myoblasts and cos-7 cells, and analysis of radioligand binding. L6 myoblasts and cos-7 cells were obtained from ATCC. Both cell lines were cultered in Dulbecco's modified Eagle's medium (DMEM; Gibco/BRL, high glucose) supplemented with 10% fetal calf serum (Gibco/BRL, Gaithersburg, Md.), L-glutamine (2 mM), penicillin (100 U/ml; Sigma), streptomycin (100 mg/ml; Sigma), saline (0.85%), under 5% CO2/95% air at 37° C. The day before transfection, cells were trypsinised and seeded into six-well plates at a density of 2.9×10^5 cells/well in the same medium. For transfection, cells were incubated with a mixture comprising 1 μg each of Qiagen-purified (Qiagen, Valencia, Calif.) plasmids containing C1ins− with either ramp 1 or ramp 3, and Fugene reagent (6 μl; Boehringer Mannheim) in Opti-Mem I medium (Gibco/BRL). The complex was added with serum to cells, which were incubated for a further 48 h.
# For binding experiments, radioligand (either alone or together with stated final concentrations of non-radiolabeled ligands) was dissolved in DMEM containing 0.1% BSA (binding buffer) for 1 h before binding experiments were performed. […] Cells were washed twice with this buffer, then incubated with 1 ml of the same plus radioligand for 4 h at room temperature (21° C.).
# soleus muscle [4] = assay: Glucose transport (2-deoxy-D-glucose uptake) in incubated soleus muscle strips; format: cell-based, rat; conditions: antagonist 1 μM and 10 μM; without antagonist 19.5±3.6
# Description: as §1
# Determination of rates of glucose transport in incubated soleus muscle strips. 4-5 muscle strips were added to each flask, which contained 10 ml DMEM. They were pre-incubated with hormones as indicated for 30 min at 30° C. in a shaking water bath, after which 5 μl of 2[^3H]DOG (0.5 μCi/ml) and 5 μl D[^14C(U)]sorbitol (0.05 μCi/ml) were added, then incubated for another 30 min; RIA grade BSA was added to 0.9% (w/v) to prevent non-specific binding of insulin to flasks. Following incubation, muscle strips were transferred to ice-cold KHB for 5-10 min to remove excess [^3H]DOG and [^14C]sorbitol. They were then blotted, frozen, tendons excised, then lyophilized for a further 48 h. Muscles were then weighed, transferred to scintillation vials and digested with 0.5 ml 1 M NaOH at 60° C. for 1 h. Scintillation fluid (4 ml) was added to each vial, and samples counted in a Beckman liquid scintillation spectrometer, preset to count ^14C and ^3H channels simultaneously. The amount of each isotope present in the samples was determined and used to calculate the extracellular space and the intracellular concentration of [^3H]DOG. The accumulation of intracellular [^3H]DOG, a measure of muscle glucose uptake, was calculated by subtracting the concentration of [^3H]DOG in the extracellular space from the corresponding total muscle [^3H]DOG]; extracellular [^3H]DOG was quantified by measuring the muscle concentration of [^14C]sorbitol.
# as §2
# ramp 1/C1ins− receptor = target: T2, ramp 1/C1ins− receptor; assay: cAMP production in L6 myoblasts co-transfected with ramp 1 and C1ins−; format: cell-based, murine; conditions: 5 μM antagonist; agonist 10 pM to 100 nM
# Description: Transfection of L6 myoblasts and cos-7 cells, and analysis of radioligand binding. L6 myoblasts and cos-7 cells were obtained from ATCC. Both cell lines were cultered in Dulbecco's modified Eagle's medium (DMEM; Gibco/BRL, high glucose) supplemented with 10% fetal calf serum (Gibco/BRL, Gaithersburg, Md.), L-glutamine (2 mM), penicillin (100 U/ml; Sigma), streptomycin ([…]; Sigma), saline (0.85%), under 5% CO2/95% air at 37° C. The day before transfection, cells were trypsinised and seeded into six-well plates at a density of 2.9×10^5 cells/well in the same medium. For transfection, cells were incubated with a mixture comprising 1 μg each of Qiagen-purified (Qiagen, Valencia, Calif.) plasmids containing C1ins− with either ramp 1 or ramp 3, and Fugene reagent (6 μl; Boehringer Mannheim) in Opti-Mem I medium (Gibco/BRL). The complex was added with serum to cells, which were incubated for a further 48 h.
# Determination of cAMP in cultured cells and soleus muscle strips. cAMP concentration was measured in cells seeded in six-well plates and transfected as described. Following aspiration, cells were incubated for 15 min at room temperature in the presence of stated concentrations of ligands in binding buffer. Isobutylmethylxanthine (Sigma) was added to a final concentration of 0.5 mM together with stated concentrations of peptides, and the reaction terminated by aspiration. Cells were washed with 0.5 ml ice-cold TE buffer (10 mM Tris/HCl, 1 mM EDTA, pH 7.6) and rapidly transferred to eppendorf tubes in 1 ml of the same buffer, then boiled for 5 min. Following centrifugation at 12,000 g for 5 min at 4° C., then cooling on ice, duplicate 50 μl aliquots were analyzed for cAMP using an assay system based on competitive binding (Arnersham Pharmacia) according to the manufacturer's instructions.
# soleus muscle [5] = assay: cAMP content of isolated soleus muscle from high fat-fed rats; format: cell-based, rat
# Description: as §1
# (§3) For the measurement of cAMP in muscle, isolated soleus strips were incubated with stated concentrations of peptides, then lyophilized and deproteinized. Each strip was placed in 400 μl of 0.5 M HClO4 with 5 mM EDTA (phosphodiesterase inhibitor) and sonicated three times in 20 s bursts. Tubes were heated for 3-5 min in boiling water to coagulate protein, then centrifuged (12,000 g, 4° C., 2 min). Supernatant (300 μl) was taken and the pH adjusted to 7.0 with 75 μl of 2 M NH4OH. The samples were refrigerated (4° C., 2 h) to precipitate proteins, then centrifuged under the same conditions as above and 50 μl taken for cAMP measurement.
# soleus muscle [6] = assay: cAMP content of isolated soleus muscle from normal fed rats; format: cell-based, rat; conditions: normal fed; 10-fold molar excess of antagonist; CGRP alone 6.9±0.8
# Description: as §1, §3
# soleus muscle [7] = assay: Lipid metabolites (free fatty acid, glycerol, triglyceride; enzymatic analysis) in isolated soleus muscle from normally fed rats; format: cell-based, rat; conditions: 1 h
# [8] = target: high affinity CGRP receptor
# [9] = target: metabolic amylin receptor
# [10] = target: high affinity CGRP receptor; remark: listed apart in the source
# [11] = target: metabolic amylin receptor; remark: listed apart in the source
# [12] = target: high affinity CGRP receptor; remark: listed apart in the source
# [13] = target: metabolic amylin receptor; remark: listed apart in the source
# [14] = target: T3, murine ramp 1/C1ins- receptor; assay: displacement of 20 nM [^3H]amylin, L6 myoblasts co-transfected with murine ramp 1 and C1ins-
# Source text: (§4) Cells were then washed and bound radioactivity determined by liquid scintillation counting. […] Each point represents the mean±SEM of three independent myoblast transfections from an experiment repeated at least twice.
# [15] = target: T3, murine ramp 1/C1ins- receptor; assay: displacement of 20 nM [^3H]amylin, co-transfected L6 myoblasts; Cheng and Prusoff with Kd […]
# Source text: as §4
# 95% confidence intervals (nM) are bracketed.
# [16] = target: T3, murine ramp 1/C1ins- receptor; assay: displacement of 20 nM [^3H]amylin, co-transfected L6 myoblasts
# Source text: as §4
molecule,measurement,setting,value
salmon calcitonin,EC50,soleus muscle [1]; absence of insulin,0.1 nM
same,EC50,soleus muscle [1]; human insulin 23.7 nM,0.9 nM
same,EC50,soleus muscle [2]; absence of insulin,1.7 nM
same,EC50,soleus muscle [2]; human insulin 23.7 nM,0.6 nM
same,specific binding of [3H]radioligand to L6 myoblasts co-transfected with ramp 1 and C1ins−,[3],significant increases in specific binding
rat amylin-(8-37),glucose uptake in presence of amylin (10 nM) and insulin (23.7 nM) plus antagonist,soleus muscle [4],no significant effect
same,antagonism of peptide-evoked cAMP production,ramp 1/C1ins− receptor,only a modest decrease in cAMP production
same,cAMP content with 100 nM CGRP1 plus antagonist,soleus muscle [5]; 10-fold molar excess of antagonist,4.3 ± 0.8 pmol/mg
same,cAMP content with 1 pM CGRP plus antagonist,"soleus muscle [5]; 10-molar excess of antagonist, CGRP alone 8.6±0.4",4.4±0.4 pmol/mg
same,cAMP content with 100 nM CGRP plus antagonist,soleus muscle [6],2.9 ± 0.8 pmol/mg
same,free fatty acid concentration in conjunction with 1 pM CGRP,"soleus muscle [7]; 100 pM antagonist + 1 pM CGRP, CGRP alone 166±18",86±20 nmol/g
same,free fatty acid content in conjunction with 100 nM CGRP,"soleus muscle [7]; 10 μM antagonist or maximally stimulating insulin (23.7 nM) + 100 nM CGRP, CGRP alone 334±52",34 ± 5 nmol/g
same,free fatty acid content in conjunction with 100 nM amylin,"soleus muscle [7]; 10 μM antagonist or maximally stimulating insulin (23.7 nM) + 100 nM amylin, amylin alone 216±26",18.5 ± 6 nmol/g
rat CGRP-1 (ligand),"free fatty acid content in incubated rat soleus muscle, EC50 of the first phase",[8],0.00025 nM
same,"free fatty acid content in incubated rat soleus muscle, EC50 of the second phase",[9],45 nM
same,"lipolysis in skeletal muscle, EC50 as summed up in the description",[10],0.00026 nM
same,"EC50, ^14C-glucose incorporation into glycogen, with insulin (23.7 nM)",[11],0.7 nM
same,"EC50, ^14C-glucose incorporation into glycogen, without insulin",[11],3.1 nM
same,"EC50, total glycogen content, without insulin",[11],3.2 nM
same,"NEFA content of soleus muscle from high fat-fed rats, EC50",[12],0.0007 nM
same,"decrease in intramuscular triglyceride of soleus muscle from high fat-fed rats, EC50",[12],0.00025 nM
rat amylin (from UniProt P12969) (ligand),"EC50, total glycogen content, without insulin",[11],8 nM
same,"free fatty acid content in incubated rat soleus muscle, EC50",[13],7.8 nM
"VTHRLAGLLSRSGGVVKDNFVPTNVGSEAF [^8,37rat CGRP-1]",IC50,[14],62 nM
same,Ki,[15],19.5 nM
same,"fold lower Kl than ^8,37amylin",[16],~20 fold
